Results as given in the NIST ThermoML archive (doi:10.1021/acs.jced.8b00229).

Details: Liquid, Vibrating tube method

C=CCCC [1-pentene]
Details	mass density [kg/m3]
283.48 K, 100 kPa	650.3
283.48 K, 500 kPa	650.8
283.48 K, 1000 kPa	651.6
283.48 K, 3000 kPa	654
283.48 K, 70000 kPa	708.8
283.48 K, 80000 kPa	714.8
283.49 K, 5000 kPa	656.3
283.49 K, 10000 kPa	661.8
283.49 K, 15000 kPa	666.9
283.49 K, 20000 kPa	671.7
283.49 K, 25000 kPa	676.2
283.49 K, 30000 kPa	680.4
283.49 K, 35000 kPa	684.5
283.49 K, 40000 kPa	688.4
283.49 K, 45000 kPa	692.1
283.49 K, 50000 kPa	695.7
283.49 K, 55000 kPa	699.1
283.49 K, 60000 kPa	702.5
283.49 K, 90000 kPa	720.4
283.49 K, 100000 kPa	725.7
293.42 K, 100 kPa	640.1
293.42 K, 500 kPa	640.7
293.42 K, 1000 kPa	641.4
293.42 K, 3000 kPa	644
293.42 K, 5000 kPa	646.5
293.42 K, 10000 kPa	652.4
293.42 K, 40000 kPa	680.8
293.42 K, 55000 kPa	692
293.42 K, 60000 kPa	695.5
293.42 K, 70000 kPa	702.2
293.42 K, 80000 kPa	708.3
293.42 K, 90000 kPa	714.1
293.42 K, 100000 kPa	719.6
293.43 K, 15000 kPa	657.9
293.43 K, 20000 kPa	663
293.43 K, 25000 kPa	667.8
293.43 K, 35000 kPa	676.7
293.43 K, 45000 kPa	684.7
293.43 K, 50000 kPa	688.4
293.44 K, 30000 kPa	672.3
303.33 K, 100 kPa	629.8
303.33 K, 1000 kPa	631.1
303.33 K, 3000 kPa	634
303.33 K, 35000 kPa	668.9
303.34 K, 5000 kPa	636.7
303.34 K, 10000 kPa	643.1
303.34 K, 15000 kPa	649
303.34 K, 20000 kPa	654.5
303.34 K, 25000 kPa	659.6
303.34 K, 30000 kPa	664.4
303.34 K, 40000 kPa	673.2
303.34 K, 45000 kPa	677.3
303.34 K, 50000 kPa	681.2
303.34 K, 80000 kPa	702
303.34 K, 90000 kPa	707.9
303.35 K, 55000 kPa	685
303.35 K, 60000 kPa	688.6
303.35 K, 70000 kPa	695.6
303.35 K, 100000 kPa	713.6
313.27 K, 500 kPa	620.4
313.27 K, 3000 kPa	624.5
313.27 K, 5000 kPa	627.5
313.27 K, 10000 kPa	634.4
313.28 K, 1000 kPa	621.3
313.28 K, 15000 kPa	640.8
313.28 K, 20000 kPa	646.7
313.28 K, 25000 kPa	652.1
313.28 K, 30000 kPa	657.2
313.28 K, 45000 kPa	670.8
313.28 K, 50000 kPa	674.9
313.28 K, 70000 kPa	689.9
313.29 K, 35000 kPa	661.9
313.29 K, 40000 kPa	666.6
313.29 K, 55000 kPa	678.8
313.29 K, 60000 kPa	682.6
313.29 K, 80000 kPa	696.4
313.29 K, 90000 kPa	702.6
313.29 K, 100000 kPa	708.4
323.18 K, 500 kPa	608.6
323.18 K, 1000 kPa	609.3
323.18 K, 3000 kPa	612.8
323.18 K, 5000 kPa	616.1
323.19 K, 10000 kPa	623.7
323.19 K, 15000 kPa	630.6
323.19 K, 20000 kPa	636.9
323.19 K, 25000 kPa	642.7
323.19 K, 30000 kPa	648.1
323.19 K, 35000 kPa	653.1
323.19 K, 40000 kPa	657.9
323.19 K, 45000 kPa	662.4
323.19 K, 50000 kPa	666.7
323.19 K, 55000 kPa	670.8
323.19 K, 60000 kPa	674.7
323.19 K, 70000 kPa	682.2
323.19 K, 80000 kPa	689.1
323.19 K, 90000 kPa	695.4
323.19 K, 100000 kPa	701.5
333.04 K, 500 kPa	597.2
333.04 K, 1000 kPa	598.1
333.04 K, 3000 kPa	601.9
333.04 K, 5000 kPa	605.6
333.04 K, 10000 kPa	613.9
333.05 K, 15000 kPa	621.4
333.05 K, 20000 kPa	628.1
333.05 K, 25000 kPa	634.3
333.05 K, 30000 kPa	640
333.05 K, 35000 kPa	645.3
333.05 K, 40000 kPa	650.4
333.05 K, 45000 kPa	655.1
333.05 K, 50000 kPa	659.6
333.05 K, 55000 kPa	663.9
333.05 K, 60000 kPa	668
333.05 K, 70000 kPa	675.8
333.05 K, 100000 kPa	695.8
333.06 K, 80000 kPa	683
333.06 K, 90000 kPa	689.6
342.94 K, 500 kPa	585.8
342.94 K, 1000 kPa	586.8
342.94 K, 90000 kPa	684
342.95 K, 3000 kPa	591.2
342.95 K, 5000 kPa	595.3
342.95 K, 10000 kPa	604.4
342.95 K, 70000 kPa	669.9
342.95 K, 80000 kPa	677.2
342.95 K, 100000 kPa	690.4
342.96 K, 15000 kPa	612.5
342.96 K, 20000 kPa	619.8
342.96 K, 25000 kPa	626.3
342.96 K, 30000 kPa	632.4
342.96 K, 35000 kPa	638.1
342.96 K, 40000 kPa	643.4
342.96 K, 45000 kPa	648.4
342.96 K, 50000 kPa	653
342.96 K, 55000 kPa	657.5
342.96 K, 60000 kPa	661.8
352.82 K, 500 kPa	574.2
352.82 K, 1000 kPa	575.6
352.82 K, 3000 kPa	580.5
352.82 K, 5000 kPa	585.1
352.82 K, 10000 kPa	595.2
352.83 K, 15000 kPa	603.9
352.83 K, 20000 kPa	611.7
352.83 K, 25000 kPa	618.7
352.83 K, 30000 kPa	625.2
352.83 K, 35000 kPa	631.2
352.83 K, 40000 kPa	636.7
352.83 K, 45000 kPa	641.9
352.83 K, 50000 kPa	646.9
352.83 K, 55000 kPa	651.5
352.83 K, 70000 kPa	664.3
352.83 K, 80000 kPa	671.9
352.83 K, 90000 kPa	679
352.83 K, 100000 kPa	685.6
352.84 K, 60000 kPa	655.9
362.67 K, 500 kPa	560.5
362.67 K, 1000 kPa	561.8
362.67 K, 3000 kPa	567.4
362.67 K, 80000 kPa	664.9
362.67 K, 100000 kPa	679
362.68 K, 5000 kPa	572.6
362.68 K, 10000 kPa	583.8
362.68 K, 15000 kPa	593.3
362.68 K, 20000 kPa	601.7
362.68 K, 25000 kPa	609.2
362.68 K, 30000 kPa	616.1
362.68 K, 35000 kPa	622.4
362.68 K, 40000 kPa	628.2
362.68 K, 45000 kPa	633.7
362.68 K, 50000 kPa	638.9
362.68 K, 55000 kPa	643.7
362.68 K, 60000 kPa	648.3
362.68 K, 70000 kPa	657.1
362.68 K, 90000 kPa	672.2
